Measurements taken from US9181288B2, “Azepane derivatives and methods of treating hepatitis B infections” (Novira Therapeutics, Inc., priority 2014, dated 2015).

Tests used:
[1] = tested on: HBV replication in HepG2-2.2.15 cells; assay: Inhibition of HBV replication dot-blot assay; assay type: cell-based; conditions: Hepatitis B virus, 144 h, six days, reduction in HBV DNA levels
Experimental: Compounds active in the HBV assembly assay are tested for their activity and toxicity in cellular assay. In the first anti-viral assay, the ability of compounds to inhibit HBV replication in an HBV-producing hepatoma cell line using the dot-blot method is evaluated.
Briefly, confluent monolayers of HepG2-2.2.15 cells are incubated with complete medium containing various concentrations of a test compound. Three days later, the culture medium is replaced with fresh medium containing the appropriately diluted test compound. Six days following the initial administration of the test compound, the cell culture supernatant is collected, and cell lysis is performed. The samples are applied onto Nylos membranes and DNA is immobilized to the membrane by UV cross-linking. After pre-hybridization, the HBV probe is added and the hybridization is performed overnight. The membranes are exposed to the Kodak films; antiviral activity is calculated from the reduction in HBV DNA levels (EC50). The EC50 for antiviral activity is calculated from the dose response curves of active compounds. Assay performance over time is monitored by the use of the standard positive control compounds ETV, BAY 41-4109, and HAP-1.
Selected compounds were tested for their activity and toxicity in cellular assay. In the first anti-viral assay, the ability of compounds to inhibit HBV replication in an HBV-producing hepatoma cell line using the dot-blot method was evaluated.
Confluent monolayers of HepG2-2.2.15 cells were incubated with complete medium containing various concentrations of a test compound. Three days later, the culture medium was replaced with fresh medium containing the appropriately diluted test compound. Six days following the initial administration of the test compound, the cell culture supernatant was collected, and cell lysis was performed. The samples were applied onto Nylos membranes and DNA was immobilized to the membrane by UV cross-linking. After pre-hybridization, the HBV probe was added and the hybridization was performed overnight. The membranes were exposed to the Kodak films; antiviral activity was calculated from the reduction in HBV DNA levels (EC50). The EC50 for antiviral activity was calculated from the dose response curves of active compounds. Assay performance over time was monitored by the use of the standard positive control compounds ETV, BAY 41-4109, and HAP-1.

[2] = biological target: HBV C150Bo capsid protein (mutant C150 HBV core protein labeled with BODIPY-FL) (Hepatitis B virus genotype D subtype adw, UniProt P03147, C107A/C48A/C61A/R150C); assay: HBV assembly assay (fluorescence quenching in vitro capsid assembly); assay type: biochemical; conditions: at about 10 μM; 50 mM Hepes pH 7.5, 150 mM NaCl, 1 hour room temperature
Chain of HBV C150Bo capsid protein (mutant C150 HBV core protein labeled with BODIPY-FL) (P03147 1-150 C48A/C61A/C107A/R150C): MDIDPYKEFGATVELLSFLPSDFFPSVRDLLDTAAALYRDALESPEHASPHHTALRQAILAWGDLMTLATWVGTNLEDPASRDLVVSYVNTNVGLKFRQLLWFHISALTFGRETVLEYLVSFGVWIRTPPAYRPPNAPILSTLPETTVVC

Structure (SMILES)	inhibition at 10 µM [1]	Activity (HBV assembly assay) [2]
O=C(Nc1ccc(F)c(Cl)c1)c1ccc(F)c(S(=O)(=O)N2CC(O)CC3CC3C2)c1 (stereo not drawn) [Compound 2492]	> 50%	+ (‘+’ indicates >50% activity at about 10 μM)
COc1ccc(C(=O)Nc2ccc(F)c(Cl)c2)cc1S(=O)(=O)N1CCOCC(O)C1 (stereo not drawn) [Compound 1980]	> 50%	+ (‘+’ indicates >50% activity at about 10 μM)
O=C(Nc1ccc(F)c(Cl)c1)c1ccc(F)c(S(=O)(=O)N2CCCC[C@H](O)C2)c1 [Compound 1763_E2]	> 50%	+ (‘+’ indicates >50% activity at about 10 μM)
O=C(Nc1cc(F)c(F)c(F)c1)c1ccc(F)c(S(=O)(=O)N2CC(O)CC3CC3C2)c1 (stereo not drawn) [Compound 2548]	> 50%	+ (‘+’ indicates >50% activity at about 10 μM)
COc1ccc(C(=O)Nc2ccc(F)c(Cl)c2)cc1S(=O)(=O)N1CCCC(O)C(F)C1 (stereo not drawn) [Compound 2114_D1]	> 50%	+ (‘+’ indicates >50% activity at about 10 μM)
CC(=O)O[C@@H]1CC[C@H](O)CN(S(=O)(=O)c2cc(C(=O)Nc3cc(F)c(F)c(F)c3)ccc2F)C1 [Compound 2618_D2]	> 50%	+ (‘+’ indicates >50% activity at about 10 μM)
O=C(Nc1cc(F)c(F)c(F)c1)c1ccc(F)c(S(=O)(=O)N2CCCCC(F)(F)C2)c1 [Compound 2121]	> 50%	+ (‘+’ indicates >50% activity at about 10 μM)
O=C(Nc1cc(F)c(F)c(F)c1)c1ccc(F)c(S(=O)(=O)N2CCOCC(O)(C3CC3)C2)c1 (stereo not drawn) [Compound 1987]	> 50%	+ (‘+’ indicates >50% activity at about 10 μM)
O=C(Nc1cc(F)c(F)c(F)c1)c1ccc(CF)c(S(=O)(=O)N2CC(O)CC3CC3C2)c1 (stereo not drawn) [Compound 2550]	> 50%	+ (‘+’ indicates >50% activity at about 10 μM)
O=C(Nc1ccc(F)c(Cl)c1)c1ccc(F)c(S(=O)(=O)N2CCC[C@@H](O)CC2)c1 [Compound 1766_E1]	> 50%	+ (‘+’ indicates >50% activity at about 10 μM)
O=C(Nc1ccc(F)c(Cl)c1)c1ccc(CF)c(S(=O)(=O)N2CCCCCC2)c1 [Compound 2004]	> 50%	+ (‘+’ indicates >50% activity at about 10 μM)
O=C(Nc1cc(F)c(F)c(F)c1)c1ccc(CF)c(S(=O)(=O)N2CCOCC(O)C2)c1 (stereo not drawn) [Compound 1981]	> 50%	+ (‘+’ indicates >50% activity at about 10 μM)
O=C(Nc1cc(F)c(F)c(F)c1)c1ccc(F)c(S(=O)(=O)N2C[C@H](O)CC[C@H](O)C2)c1 [Compound 2617_D2]	> 50%	+ (‘+’ indicates >50% activity at about 10 μM)
COc1ccc(C(=O)Nc2ccc(F)c(F)c2)cc1S(=O)(=O)N1CCOCC(O)C1 (stereo not drawn) [Compound 1979]	> 50%	+ (‘+’ indicates >50% activity at about 10 μM)
O=C(Nc1ccc(F)c(F)c1)c1ccc(F)c(S(=O)(=O)N2CCCC(F)[C@@H](O)C2)c1 (stereo partly drawn) [Compound 1821_D1]	> 50%	+ (‘+’ indicates >50% activity at about 10 μM)
CC1(O)CCCCN(S(=O)(=O)c2cc(C(=O)Nc3cc(F)c(F)c(F)c3)ccc2F)C1 (stereo not drawn) [Compound 1892]	> 50%	+ (‘+’ indicates >50% activity at about 10 μM)
O=C(Nc1ccc(F)c(Cl)c1)c1ccc(CCF)c(S(=O)(=O)N2CCCC(O)CC2)c1 (stereo not drawn) [Compound 2205, N-(3-chloro-4-fluoro-phenyl)-4-(2-fluoroethyl)-3-(4-hydroxyazepan-1-yl)sulfonyl-benzamide]	> 50%	+ (‘+’ indicates >50% activity at about 10 μM)

Structure (SMILES)	inhibition at 10 µM [1]	Activity (HBV assembly assay) [2]
Cc1ccc(C(=O)Nc2cc(F)c(F)c(F)c2)cc1S(=O)(=O)N1CCCCC(O)C1 (stereo not drawn) [Compound 1915]	> 50%	+ (‘+’ indicates >50% activity at about 10 μM)
O=C(Nc1ccc(F)c(F)c1)c1ccc(F)c(S(=O)(=O)N2CCCC(F)C(O)C2)c1 (stereo not drawn) [Compound 1821]	> 50%	+ (‘+’ indicates >50% activity at about 10 μM)
O=C(Nc1ccc(F)c(Cl)c1)c1cc(S(=O)(=O)N2CCCC(O)CC2)c2[nH]cnc2c1 (stereo not drawn) [Compound 2033]	> 50%	+ (‘+’ indicates >50% activity at about 10 μM)
O=C(Nc1cc(F)c(F)c(F)c1)c1ccc(F)c(S(=O)(=O)N2CCCC(F)C(O)C2)c1 (stereo not drawn) [Compound 1820]	> 50%	+ (‘+’ indicates >50% activity at about 10 μM)
O=C(Nc1ccc(F)c(Cl)c1)c1ccc(F)c(S(=O)(=O)N2C[C@H](O)CC[C@@H](O)C2)c1 [Compound 2433_D1]	> 50%	+ (‘+’ indicates >50% activity at about 10 μM)
O=C(Nc1ccc(F)c(Cl)c1)c1ccc(F)c(S(=O)(=O)N2CCCC(F)[C@H](O)C2)c1 (stereo partly drawn) [Compound 1822_D2]	> 50%	+ (‘+’ indicates >50% activity at about 10 μM)
O=C(Nc1cc(F)c(F)c(F)c1)c1ccc(F)c(S(=O)(=O)N2CCC(O)C(F)(F)CC2)c1 (stereo not drawn) [Compound 2202]	> 50%	+ (‘+’ indicates >50% activity at about 10 μM)
CC(=O)O[C@@H]1CC[C@H](O)CN(S(=O)(=O)c2cc(C(=O)Nc3ccc(F)c(Cl)c3)ccc2F)C1 [Compound 2619_D2]	> 50%	+ (‘+’ indicates >50% activity at about 10 μM)
O=C(Nc1cc(F)c(F)c(F)c1)c1ccc(CCF)c(S(=O)(=O)N2CCCC(O)CC2)c1 (stereo not drawn) [Compound 2206]	> 50%	+ (‘+’ indicates >50% activity at about 10 μM)
O=C(Nc1ccc(F)c(Cl)c1)c1cccc(S(=O)(=O)N2CCOCC(O)C2)c1 (stereo not drawn) [Compound 1977]	> 50%	+ (‘+’ indicates >50% activity at about 10 μM)
O=C(Nc1ccc(F)c(F)c1)c1ccc(F)c(S(=O)(=O)N2CCOCC(O)C2)c1 (stereo not drawn) [Compound 1894]	> 50%	+ (‘+’ indicates >50% activity at about 10 μM)
CC(=O)O[C@@H]1CC[C@@H](O)CN(S(=O)(=O)c2cc(C(=O)Nc3cc(F)c(F)c(F)c3)ccc2F)C1 [Compound 2618_D1]	> 50%	+ (‘+’ indicates >50% activity at about 10 μM)
O=C(Nc1cc(F)c(F)c(F)c1)c1cccc(S(=O)(=O)N2CCOCC(O)C2)c1 (stereo not drawn) [Compound 1975]	> 50%	+ (‘+’ indicates >50% activity at about 10 μM)
CC1(O)CCCN(S(=O)(=O)c2cc(C(=O)Nc3cc(F)c(F)c(F)c3)ccc2F)CC1 (stereo not drawn) [Compound 1944]	> 50%	+ (‘+’ indicates >50% activity at about 10 μM)
O=C(Nc1ccc(F)c(Cl)c1)c1ccc(F)c(S(=O)(=O)N2CCOC[C@@H](O)C2)c1 [Compound 1893_E1]	> 50%	+ (‘+’ indicates >50% activity at about 10 μM)
CC1(O)CCCN(S(=O)(=O)c2cc(C(=O)Nc3ccc(F)c(F)c3)ccc2F)CC1 (stereo not drawn) [Compound 1938]	> 50%	+ (‘+’ indicates >50% activity at about 10 μM)
